According to patent publication US6376666B1 (Nauchno-Issledovatelsky Institut Farmakologii Rossiiskoi …, priority 1994, dated 2002):
One block for each compound: values may come before it.

Key:
Format in all cases: in vivo
[1] = test system: Balb/c mice; assay: open-field test, Balb/c mice (passive type of emotional-stress reaction); design: key to Total activity: sum of all locomotor activity counts (crossings + rearings) in 3 min; conditions: for effect on the behavior (locomotor activity) of Balb/c mice in open-field test, in words: i.p., screening
In short: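 Male mice, 20-22 g, dosed i.p. in water 30 min before a 3-min open-field test after 1 min in darkness; peripheral, central, rearing and total activity plus defecations recorded; Student t-test. Anxiolysis read as Balb/c activation, sedation as C57B1/6 inhibition.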

[2] = test system: ventricular fibrillations; assay: ventricular fibrillation, 7-min occlusion and reperfusion of coronary artery in anesthetized rats; conditions: anesthetized rats i.v.; bonnecor 1,0, IX 2,0, X (printed) 1,0 mg/kg
Method: The experiments were conducted in male rats weighing 180-240 g and anesthetized with nembutal (60 mg/kg i.v.) with open chest and artificial respiration. The occlusion of the left coronary artery was performed 1-2 min after experiment beginning with following reperfusion after 7 min. During this period time according to literature data [Krzeminski T., Grzyb J., Kurcok A., Brus R.: Pol.J.Pharmacol., 1992, 44, Suppl., p.169-170] the maximum number of ventricular fibrillations (70-100%) were registered. The ECG in the 2nd standard lead was recorded in “Mingograph-81”. The number of ventricular fibrillations during occlusion and reperfusion periods, the life menacing arrhythmia (fibrillation+paroxysmal ventricular tachycardia) and total number of arrhythmias were calculated. The known antiarrhythmic drug bonnecor was used as the reference agent [Grigorieva E. K., Gorbunova V. V. in: “New antiarrhythmic drug—bonnecor (the pharmacology and clinical usage)”, M., 1993, p.64-67]. The compounds were injected i.v. at the following doses: bonnecor—1,0 mg/kg, compound IX—2,0 mg/kg, compound XX—1,0 mg/kg. The control animals were administered with the equivalent volume of physiological solution (1,0 ml/kg). 4 series of experiments were carried out in 80 rats. The results were assessed according to the method of point scale: the absence of arrhythmia—0 point, extrasystole—1 point, paroxysmal ventricular tachycardia—2 points, ventricular fibrillation—3 points, fibrillation observed during the occlusion of coronary vessel—4 points. For statistical analysis the Fisher's exact probability and Wilconson's methods were used.
[Krzeminski T., Grzyb J., Kurcok A., Brus R.: Pol.J.Pharmacol., 1992, 44, Suppl., p.169-170] have shown that 7 min occlusion with following reperfusion of coronary artery in anesthetized rats produced the ventricular fibrillation (68-100%). Defibrotide and prostacycline decreased the number of fibrillations. We have studied the antifibrillator activity of some derivatives of 2-mercaptbenzimidazole in this model with disturbances of heart rhythm. Bonnecor (1,0 mg/kg) was used as the reference drug. It is well known that this agent produces apronouncedantifibrillatoryactivity [Grigorieva E. K., Gorbunova V. V. in: “New antiarrhythmic drug-bonnecor (the pharmacology and clinical usage)”, M., 1993, p.64-67].

[3] = test system: cats; assay: hemodynamics and activity of intact heart in cats under anesthesia; conditions: cats i.v.
Method: The effects of compounds on the hemodynamics and activity of intact heart were studied in cats under anesthesia. The experiments were carried out under conditions of open chest. The phase curve of aortic blood flow was the main index of cardiac activity. The compounds were administered i.v. in physiological solution. The t-Student' test was used to estimate the statistical significance.

[4] = test system: male outbred mice; assay: potentiation of sleep induced by sodium thiopental
Method: The possible hypnotic effects of choosen drugs was estimated according to method of potentiation of sleep induced by sodium thiopental. The male outbred mice weighing 20-25 g were injected i.p. with sodium thiopental at dose of 70 mg/kg. Two parameters were estimated: latent time of sleeping and duration of sleep. The used compounds were administered i.p. 30 min prior injection of sodium thiopental.

[5] = test system: C57B1/6 mice; assay: open-field test, C57B1/6 mice (active type of emotional-stress reaction); design: key to Total activity: sum of all locomotor activity counts (crossings + rearings) in 3 min; conditions: for Central activity (crossings) / Peripheral activity (crossings) / Total activity / Vertical activity (rearings): M ± mx
From the text: The main point of this approach consists in comparative analysis of the behavioural effects of tested compounds in two inbred strains of mice Balb/c and C57B1/6 with different hereditary types of emotional-stress reactions (ESR). The anxiolytic effect was estimated as the activation of the locomotor activity of animals with “passive” type of ESR (Balb/c mice). The main index describing the sedative properties of tested drugs was the inhibition of the locomotor activity of mice with “active” type of ESR (C57B1/6 strain). The anxioselectivity was evaluated according to coincidence of doses range which activated or inhibited the behavior of mice of different strains. Earlier this approach has been successfully used for estimation of anxioselective activity of such known drugs as phenazepam [Seredenin S. B. et al., Bull.Exp.Biol.Med., 1979, v.88, N7, p.38; Seredenin S. B. et al., Ann.Inst.Super.Sanita, 1990, v.26, N1, p.81-88], mexidol [Seredenin S. B. et al., Khimiko-Farmatsevt.Zhurnal, 1987, N2, p.134; Vironina T. A., Seredenin S. B., Ann.Inst.Super.Sanita, 1988, v.24, N3, p.461-466] and gidazepam [Seredenin S. B. et al., in: “Gidazepam” Kiev, Naukova Dumka, 1992, p.92; Seredenin S. B., Blednov Yu. A., Phys.Chem.Biol.Med., 1993, v.1, N1, p.53-60].
Male C57B1/6 and Balb/c mice (“Stolbovaya” animal farm), weighing 20-22 g were used. The animals were housed in a separate animal room in groups of ten and maintained on 12 h light-dark cycle (light from 8.00 till 20.00) with free access to standard food and water during two weeks before experiment. Testing was performed between 9.00 and 13.00. Every used compound was administered intraperitoneally in water solutions 30 min before testing (0,1 ml solution per 10 g of weight). The “open-field” apparatus consisted of cylinder closed from one end, illuminated by four 75 W lamps fixed to the walls 100 cm above the floor. The “open-field” apparatus was 100 cm in diameter and white-painted; the floor was marked with 3 black circles and some radial lines divided the floor into 16 peripheral and 8 central segments. 30 min after injection each animal was placed in the same peripheral square on the floor for 3 min of testing after 1 min exposure in the dark chamber. The following behavior variables were recorded: 1) the number of crossings in the peripheral area (peripheral activity); 2) the number of crossings in the central segments (central activity); 3) the number of rearings (vertical activity); 4) the emotionality was measured as the number of defecations during the test. The sum of all types of locomotor activity was marked as total activity. The t-Student test was used for statistical analysis.

[6] = test system: outbred male mice; assay: rotarod test (myorelaxant activity); conditions: cut-off 120 sec
Method: The myorelaxant activity of choosen compounds were studied in the outbred male mice weighing 22-25 g in rotarod test [Voronina T. A. et al., in: “Phenazepam”, Naukova Dumka, Kiev, 1982, p.145]. The animals were placed on the horizontal rotarod (D=2 cm) calibrated for a fixed speed of 4 rpm. According to the rotarod experimental protocol, normal motor coordination was defined by the ability of the animals to remain on the rotarod for an arbitrarily selected time of 120 sec.

[7] = test system: outbred male rats; assay: conflict Vogel test (punished licking of water); conditions: M ± mx
Method: The study of anxiolytic activity of chosen compounds was carried out in the experiments with outbred male rats weighing 180-200 g in standard conflict Vogel' procedure [Voronina T. A. et al., in: “Phenazepam”, Naukova Dumka, Kiev, 1982, p.89, 93, 146]. The main aim of the initial step of experiments was the training of rats to develop the feeling of thirst with following experience of water licking from bottle in the experimental chamber. The animals were deprived of water for 24 hours and were placed in the test chamber for 5-min adaptation period during which they had free access to the drinking bottle. After another 24 h deprivation period the rats were placed again in the test chamber and were allowed to drink water for 5 sec. Immediately afterwards drinking attempts were punished by electric shock (0,5 mA). Under this collision of drinking and protective reflexes the extremal situation was developed. In this situation the anxiety of punishment prevented the licking process. The number of shocks received throughout a 5-min experimental session was recorded.

[8] = 0.5 mg/kg i.p. 30 min before thiopental 70 mg/kg i.p.
[9] = 1.0 mg/kg i.p. 30 min before thiopental 70 mg/kg i.p.
[10] = 5.0 mg/kg i.p. 30 min before thiopental 70 mg/kg i.p.
[11] = 10.0 mg/kg i.p. 30 min before thiopental 70 mg/kg i.p.

SMILES: CCOc1ccc2nc(SCCN3CCCC3)[nH]c2c1 [Compound X, 2-[2-(Pyrrolidino)ethylthio]-5-ethoxybenzimidazole]
- effect on the behavior (locomotor activity) of Balb/c mice in open-field test, in words [1]: neither activatory nor inhibitory effects
- antifibrillatory effect, in words [2]: trend to decrease the number of ventricular fibrillations
- effect on heart rate, in words ([3]; doses of 0,5 mg/kg-2,0 mg/kg): small and short bradycardia

- duration of sleep after sodium thiopental [4, 8]: 78.4 ± 18.2 min
- latent time of sleep after sodium thiopental [4, 8]: 2.5 ± 0.2 s
- duration of sleep after sodium thiopental [4, 9]: 70.5 ± 13.7 min
- latent time of sleep after sodium thiopental [4, 9]: 2.8 ± 0.2 s
- duration of sleep after sodium thiopental [4, 10]: 56.8 ± 19.1 min
- latent time of sleep after sodium thiopental [4, 10]: 2.3 ± 0.2 s
- duration of sleep after sodium thiopental [4, 11]: 74.7 ± 18.7 min
- latent time of sleep after sodium thiopental [4, 11]: 2.8 ± 0.3 s
SMILES: Cc1cc2nc(SCCN3CCOCC3)[nH]c2cc1C [XV, 2-[2-(Morpholino)ethylthio]-5,6-dimethylbenzimidazole]
- Number of defecations ([1]; 0.01 mg/kg i.p., M ± mx): 0.5 ± 0.5
- Peripheral activity (crossings) ([1]; 0.01 mg/kg i.p., M ± mx): 6.9 ± 1.8
- Total activity ([1]; 0.01 mg/kg i.p., M ± mx): 6.9 ± 1.8
- Number of defecations ([1]; 0.1 mg/kg i.p., M ± mx): 1.0 ± 0.7
- Peripheral activity (crossings) ([1]; 0.1 mg/kg i.p., M ± mx): 11.1 ± 2.1
- Total activity ([1]; 0.1 mg/kg i.p., M ± mx): 11.2 ± 2.1
- Central activity (crossings) ([1]; 0.5 mg/kg i.p., M ± mx): 0.5 ± 0.4
- Number of defecations ([1]; 0.5 mg/kg i.p., M ± mx): 1.6 ± 0.7
- Peripheral activity (crossings) ([1]; 0.5 mg/kg i.p., M ± mx): 32.1 ± 4.7
- Total activity ([1]; 0.5 mg/kg i.p., M ± mx): 32.6 ± 5.0
- Central activity (crossings) ([1]; 1.0 mg/kg i.p., M ± mx): 5.1 ± 4.4
- Number of defecations ([1]; 1.0 mg/kg i.p., M ± mx): 2.0 ± 0.9
- Peripheral activity (crossings) ([1]; 1.0 mg/kg i.p., M ± mx): 37.7 ± 5.5
- Total activity ([1]; 1.0 mg/kg i.p., M ± mx): 42.8 ± 9.9
- Number of defecations ([1]; 5.0 mg/kg i.p., M ± mx): 3.6 ± 0.9
- Peripheral activity (crossings) ([1]; 5.0 mg/kg i.p., M ± mx): 39.1 ± 8.6
- Total activity ([1]; 5.0 mg/kg i.p., M ± mx): 39.1 ± 8.6
- Central activity (crossings) ([1]; 10.0 mg/kg i.p., M ± mx): 0.6 ± 0.5
- Peripheral activity (crossings) ([1]; 10.0 mg/kg i.p., M ± mx): 44.9 ± 13.0
- Total activity ([1]; 10.0 mg/kg i.p., M ± mx): 45.9 ± 13.8
- Vertical activity (rearings) ([1]; 10.0 mg/kg i.p., M ± mx): 0.4 ± 0.3 —
- Number of defecations ([1]; 75.0 mg/kg i.p., M ± mx): 2.7 ± 1.3
- Peripheral activity (crossings) ([1]; 75.0 mg/kg i.p., M ± mx): 8.8 ± 2.9
- Total activity ([1]; 75.0 mg/kg i.p., M ± mx): 8.8 ± 2.9
- Peripheral activity (crossings) ([1]; 100.0 mg/kg i.p., M ± mx): 6.5 ± 3.1
- Total activity ([1]; 100.0 mg/kg i.p., M ± mx): 6.5 ± 3.1
- effect on the behavior (locomotor activity) of Balb/c mice in open-field test, in words [1]: able to activate the behavior of Balb/c mice
- Central activity (crossings) ([5]; 1.0 mg/kg i.p.): 39.0 ± 6.9
- Peripheral activity (crossings) ([5]; 1.0 mg/kg i.p.): 87.8 ± 6.7
- Total activity ([5]; 1.0 mg/kg i.p.): 138.2 ± 16.1
- Vertical activity (rearings) ([5]; 1.0 mg/kg i.p.): 11.4 ± 2.5
- Central activity (crossings) ([5]; 5.0 mg/kg i.p.): 36.4 ± 5.7
- Peripheral activity (crossings) ([5]; 5.0 mg/kg i.p.): 87.8 ± 14.6
- Total activity ([5]; 5.0 mg/kg i.p.): 139.1 ± 22.6
- Vertical activity (rearings) ([5]; 5.0 mg/kg i.p.): 14.9 ± 2.3
- Central activity (crossings) ([5]; 50.0 mg/kg i.p.): 35.0 ± 8.1
- Peripheral activity (crossings) ([5]; 50.0 mg/kg i.p.): 54.1 ± 10.7
- Total activity ([5]; 50.0 mg/kg i.p.): 95.4 ± 20.4
- Vertical activity (rearings) ([5]; 50.0 mg/kg i.p.): 6.3 ± 1.6
- effect on locomotor activity of C57B1/6 mice in open-field test, in words ([5]; i.p., doses that activate Balb/c mice): without any changes in locomotor activity
- effect on heart rate, in words ([3]; dose of 5 mg/kg): small, but statistically significant bradycardia
- time of remaining on the rotarod ([6]; 0.1 mg/kg): 120 + 0 sec
- time of remaining on the rotarod ([6]; 1.0 mg/kg): 120 + 0 sec
- time of remaining on the rotarod ([6]; 5.0 mg/kg): 120 + 0 sec
- time of remaining on the rotarod ([6]; 10.0 mg/kg): 120 + 0 sec
- time of remaining on the rotarod ([6]; 20.0 mg/kg): 120 + 0 sec
- number of punished lickings (shocks received in 5-min session) ([7]; 1.0 mg/kg i.p.): 59.1 ± 16.7
- number of punished lickings (shocks received in 5-min session) ([7]; 5.0 mg/kg i.p.): 35.3 ± 5.5
- number of punished lickings (shocks received in 5-min session) ([7]; 10.0 mg/kg i.p.): 38.0 ± 9.4
- number of punished lickings (shocks received in 5-min session) ([7]; 20.0 mg/kg i.p.): 73.9 ± 24.1
